{"source": "patent US10662214B2", "about": "“Compound of 4′-thionucleoside, as well as preparation method therefor, pharmaceutical composition thereof and application thereof” (Sichuan Kelun-Biotech Biopharmaceutical Co., Ltd., priority 2015, dated 2020)", "key": {"[1]": {"tested_on": "human pancreatic cancer cell PANC-1", "experiment": "Subcutaneous xenograft of human pancreatic cancer cell PANC-1 in a nude mouse (Experimental example 6)", "format": "in vivo", "conditions": "once every 3 days, 6 times", "procedure": "This test was performed according to experimental example 5.\nMice bearing a tumor having a volume of 100-200 mm^3 were selected, and randomized into 4 groups (6 mice per group)."}, "[2]": {"tested_on": "gastric cancer cell NCI-N87", "experiment": "CCK-8 inhibition of proliferation, NCI-N87", "format": "cell-based, human", "procedure": "The tumor cell lines employed in the present experiment were gastric cancer cell NCI-N87 (obtained from Guangzhou Jennio Biological Technology Co., Ltd.), colorectal cancer cell HCT-116 (obtained from Chengdu Center for Safety Evaluation of Drugs), colorectal cancer cell HCT-15 and pancreatic cancer cell BxPC-3 (both obtained from ATCC, US).\nEach of the cell lines is cultured in a corresponding culture medium (RPMI-1640, IMDM and L-15 culture medium (manufacturer: Gibco)) supplemented with 10% heat inactivated Fetal Bovine Serum (manufacturer: Sigma), in an incubator at 37° C. and 5% CO2.\nFor each type of tumor cells, a blank group, a vehicle group (containing 1‰ DMSO) and 8 groups with a test compound at concentrations of 5 nM, 10 nM, 50 nM, 100 nM, 500 nM, 1000 nM, 5000 nM, and 10000 nM (with each concentration in triplicate) were set.\nAppropriate amounts of test compounds were weighted, and dissolved in DMSO (cell culture grade, Sigma) to prepare stock solutions of various concentration gradients according to desired concentrations. During incubation, they were diluted by 1000 times as necessary, and incubation solutions with various drug concentrations were prepared (compound stock solution:medium containing 2% FBS=1:1000).\nThe experiment was performed according to a CCK-8 method as described below. Cancer cells to be tested were seeded in a 96-well culture plate at a concentration of 5˜10×10^4/mL (100 μL/well), followed by incubation at 37° C. and 5% CO2 for 24 h. The medium was discarded, and incubation solutions with different drug concentrations (200 μL) were respectively added to each well, and the cells were further incubated for 72 h. After the incubation, a CCK-8 solution (20 μL/well) was added to each well to be tested, and the incubation was continued for 4 h in the incubator. OD values at two wavelengths (Detection wavelength: 450 nm, and reference wavelength: 650 nm) were determined on a multifunctional fully-automatic microplate reader.\nThe inhibitory rate of tumor cell growth was calculated according to the following formula: Inhibitory rate=[(ODvehicle−ODblank)−(ODdrug−ODblank)]/(ODvehicle−ODblank)*100%\nBased on the inhibitory rate, a concentration-inhibitory rate curve was fit using GraphPad prism 5.0 software, and IC50 was calculated."}, "[3]": {"tested_on": "colorectal cancer cell HCT-116", "experiment": "Subcutaneous xenograft of colorectal cancer cell HCT-116 in nude mice (Experimental example 2)", "conditions": "for TGI (%): twice a week for 3 weeks; for Body weight change: 14 days after last administration vs beginning; for Tumor regression, CR (complete tumor regression) / Tumor regression, PR (partial tumor regression): animals out of 8", "protocol": "This experimental example was used for the evaluation of the effectiveness of the compounds of the present invention in inhibiting the proliferation of a subcutaneous xenograft of human tumor cells via various routes of administration.\nGastric cancer cell NCI-N87 and colorectal cancer cell HCT-116 were cultured as a monolayer in vitro, and the culture conditions were RPMI-1640 culture medium supplemented with 10% heat inactivated Fetal Bovine Serum, and incubation in an incubator at 37° C. and 5% CO2. The cells were subcultured by treatment with trypsin-EDTA digestion.\nThe tumor cells were respectively inoculated into BALB/c nude mice (SPF grade, female, 16-18 g per mouse, about 6 to 8 weeks old, Beijing Vital River Laboratory Animal Technology Co., Ltd.).\nEach nude mouse was inoculated with about 2.5×10^6 HCT-116 tumor cells or about 3×10^6 NCI-N87 tumor cells (suspended in 0.1 ml PBS) subcutaneously into the underarm of the right flank. After the inoculated tumor reached a size in the range of about 100-200 mm^3, nude mice bearing a tumor that is too small (smaller than 100 mm^3) or too big (bigger than 200 mm^3) were removed from the study, and the remaining ones were randomized into groups.\nSulfobutyl ether-β-cyclodextrin (SE-β-CD) was formulated with physiological saline to form a 10% solution, which was then filtered through a 0.22 μm sterile filter for later use.\nAn appropriate amount of the test compound was weighted, and added in DMSO. The resultant solution was vortexed to uniformity, and the 10% solution of SE-β-CD was added according to the desired concentration. The solution was vortexed to uniformity, and the final concentration of DMSO was adjusted to 5%. A gemcitabine injection (a positive control) was directly diluted to the desired concentration with physiological saline. A 10% solution of SE-β-CD containing 5% DMSO was prepared as a vehicle control.\nMice bearing a tumor having a volume of about 100-200 mm^3 were selected, and randomized into 5 groups (8 mice per group). The dosing volume was 10 mL/kg, and the administration (intravenous administration (i.v.) or oral administration (p.o.)) was performed twice a week for 3 weeks. The tumor volume and body weight were measured twice a week after the administration, and the mortality of animals was observed every day.\nThe diameter of a tumor was measured, and the tumor volume was calculated according to the following formula: V=0.5a×b^2, wherein a and b respectively represent the major and minor diameters of a tumor. The anti-tumor effect was evaluated by the tumor growth inhibition (TGI) (%). TGI (%)=[1−(VT-end−VT-start)/(VC-end−VC-start)]*100%\nThe body weight of an animal was measured twice a week."}}, "note": "“Also recorded” adds a separate entry of the source.", "data": [{"molecule": "CC(C)OC(=O)[C@H](C)N[P@](=O)(OC[C@H]1S[C@@H](n2ccc(N)nc2=O)[C@@H](F)[C@@H]1O)Oc1ccccc1", "note": "[Compound C8, (S)-isopropyl 2-(((S)-(((2R,3S,4S,5R)-5-(4-amino-2-oxopyrimidin-1(2H)-yl)-4-fluoro-3-hydroxytetrahydrothiophen-2-yl)methoxy)(phenoxy)phosphoryl)amino)propanoate]", "values": [{"measurement": "TGI (%)", "setting": "[1]; 0.06 mmol/kg p.o.", "result": 155, "unit": "%"}, {"measurement": "TGI (%)", "setting": "[1]; 0.19 mmol/kg p.o.", "result": 195, "unit": "%"}, {"measurement": "inhibitory effect on gastric cancer cell NCI-N87 (in words)", "setting": "[2]; FIG. 1: 5-10000 nM", "result": "potent inhibitory effects; also recorded: excellent inhibitory effects"}, {"measurement": "IC50", "setting": "[2]; Homo sapiens, NCI-N87, CCK-8, 72 h incubation", "result": 483, "unit": "nM"}, {"measurement": "Mortality", "setting": "[3]; 190 μmol/kg i.v.", "result": 0}, {"measurement": "TGI (%)", "setting": "[3]; 190 μmol/kg i.v.", "result": 111, "unit": "%"}, {"measurement": "Body weight change", "setting": "[3]; 190 μmol/kg i.v.", "result": "+7.4%"}, {"measurement": "Tumor regression, CR (complete tumor regression)", "setting": "[3]; 190 μmol/kg i.v.", "result": "1/8 CR,"}, {"measurement": "Tumor regression, PR (partial tumor regression)", "setting": "[3]; 190 μmol/kg i.v.", "result": "7/8 PR"}, {"measurement": "Mortality", "setting": "[3]; 190 μmol/kg p.o.", "result": 0}, {"measurement": "TGI (%)", "setting": "[3]; 190 μmol/kg p.o.", "result": 113, "unit": "%"}, {"measurement": "Body weight change", "setting": "[3]; 190 μmol/kg p.o.", "result": "+8.9%"}, {"measurement": "Tumor regression, CR (complete tumor regression)", "setting": "[3]; 190 μmol/kg p.o.", "result": "1/8 CR,"}, {"measurement": "Tumor regression, PR (partial tumor regression)", "setting": "[3]; 190 μmol/kg p.o.", "result": "7/8 PR"}]}]}
